Consider six compounds from PubChem BioAssay AID1918936 (Molecular Pharmacology Branch, DTP, NCI, 2023).

Molecules are shown by their SMILES. Where “and” joins values, the source holds several entries; their conditions need not be identical. Equal values may be shown once.

In general, IC50 refers to the midpoint of a concentration-inhibition curve. The term viability, T/C denotes the ratio of treated to control.

The experiment concerns 349418-098-R-PDC complex spheroid viability. Put plainly: Anticancer human tumor 349418-098-R-PDC patient-derived lung adenocarcinoma cell line growth inhibition. Conditions: for viability, T/C: stronger effect = lower value. In a few lines:
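Complex spheroids of tumor cells with HUVEC and human MSCs, exposed to iadademstat combined with other agents. Each agent tested in half-log steps from near clinical Cmax (else 10 microM top), DMSO ≤0.25%.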

The mark [1] stands for this setting: curve of first compound, second compound 0.1 µM.
Setting [2] is: curve of first compound, second compound 0.316 µM.
Setting [3] is: curve of first compound, second compound 1 µM.
Setting [4] is: curve of first compound, second compound 3.16 µM.
The mark [5] stands for this setting: curve of first compound, second compound 10 µM.
The mark [6] stands for this setting: second compound 0.1 µM, first compound 0.00316 µM.
Where [7] appears, read: second compound 0.1 µM, first compound 0.01 µM.
The mark [8] stands for this setting: second compound 0.1 µM, first compound 0.0316 µM.
Setting [9] is: second compound 0.1 µM, first compound 0.1 µM.
Setting [10] is: second compound 0.1 µM, first compound 0.316 µM.
The mark [11] stands for this setting: second compound 0.1 µM, first compound 1 µM.
Where [12] appears, read: second compound 0.316 µM, first compound 0.00316 µM.
Setting [13] is: second compound 0.316 µM, first compound 0.01 µM.
[14] abbreviates: second compound 0.316 µM, first compound 0.0316 µM.
Setting [15] is: second compound 0.316 µM, first compound 0.1 µM.
Where [16] appears, read: second compound 0.316 µM, first compound 0.316 µM.
[17] abbreviates: second compound 0.316 µM, first compound 1 µM.
The mark [18] stands for this setting: second compound 1 µM, first compound 0.00316 µM.
[19] abbreviates: second compound 1 µM, first compound 0.01 µM.
[20] abbreviates: second compound 1 µM, first compound 0.0316 µM.
Where [21] appears, read: second compound 1 µM, first compound 0.1 µM.
The mark [22] stands for this setting: second compound 1 µM, first compound 0.316 µM.
[23] abbreviates: second compound 1 µM, first compound 1 µM.
Where [24] appears, read: second compound 3.16 µM, first compound 0.00316 µM.
Where [25] appears, read: second compound 3.16 µM, first compound 0.01 µM.
Where [26] appears, read: second compound 3.16 µM, first compound 0.0316 µM.
The mark [27] stands for this setting: second compound 3.16 µM, first compound 0.1 µM.
The mark [28] stands for this setting: second compound 3.16 µM, first compound 0.316 µM.
Setting [29] is: second compound 3.16 µM, first compound 1 µM.
Where [30] appears, read: second compound 10 µM, first compound 0.00316 µM.
Where [31] appears, read: second compound 10 µM, first compound 0.01 µM.
The mark [32] stands for this setting: second compound 10 µM, first compound 0.0316 µM.
Where [33] appears, read: second compound 10 µM, first compound 0.1 µM.
Setting [34] is: second compound 10 µM, first compound 0.316 µM.
Where [35] appears, read: second compound 10 µM, first compound 1 µM.
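Note: spheroids exposed to agents for seven days before readout.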
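Throughout, for viability, T/C: 100% = DMSO vehicle control wells.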

Consider `CC1COCCN1c1cc(-c2ccnn2C)c2ccnc(-c3ccn[nH]3)c2n1` (stereo unspecified) + NC1CCC(NC2CC2c2ccccc2)CC1, for which the IC50 by setting is: under setting [1], 0.0137 µM; under setting [2], 0.0161 µM; under setting [3], 0.0114 µM; under setting [4], 0.00965 µM; under setting [5], 0.0081 µM. Besides, the viability, T/C reads like this: under setting [6], 91.5%; under setting [7], 62.6%; under setting [8], 16.8%; under setting [9], 9.57%; under setting [10], 7.39%; under setting [11], 5.98%. The viability, T/C under setting [12] is 108%; the viability, T/C under setting [13] is 71.9%; the viability, T/C under setting [14] is 18.5%; the viability, T/C under setting [15] was 9.43%; the viability, T/C under setting [16] was 6.72%; the viability, T/C under setting [17] was 6.47%. The viability, T/C is, setting by setting: under setting [18], 98.5%; under setting [19], 54.5%; under setting [20], 16.6%; under setting [21], 9.69%; under setting [22], 7.82%; under setting [23], 5.98%. The viability, T/C by setting is: under setting [24], 98.1%; under setting [25], 48.5%; under setting [26], 14.4%; under setting [27], 8.55%; under setting [28], 6.56%; under setting [29], 5.96%. The viability, T/C is, setting by setting: under setting [30], 90.7%; under setting [31], 40.9%; under setting [32], 14.5%; under setting [33], 7.6%; under setting [34], 6.06%; under setting [35], 5.03%.

On to `COc1cc(Nc2ncc3c(n2)-c2ccc(Cl)cc2C(c2c(F)cccc2OC)=NC3)ccc1C(=O)O` + NC1CCC(NC2CC2c2ccccc2)CC1, for which the IC50 under setting [1] amounted to 0.0212 µM; the half-inhibitory concentration (IC50) under setting [2] was determined as 0.0181 µM; the IC50 under setting [3] came to 0.028 µM; the IC50 under setting [4] was determined as 0.0158 µM; the IC50 under setting [5] is 0.0212 µM. Also, the viability, T/C reads like this: under setting [6], 99.2%; under setting [7], 64.7%; under setting [8], 41.8%; under setting [9], 38.5%; under setting [10], 32.1%; under setting [11], 37.4%. Also, the viability, T/C is 87.3% under setting [12]; 63.1% under setting [13]; 37.7% under setting [14]; 38.9% under setting [15]; 39.7% under setting [16]; 32.5% under setting [17]. The viability, T/C is, setting by setting: under setting [18], 85%; under setting [19], 62.8%; under setting [20], 43.6%; under setting [21], 47.3%; under setting [22], 40.9%; under setting [23], 34.5%. Further, the viability, T/C is, setting by setting: under setting [24], 99.5%; under setting [25], 58.9%; under setting [26], 35.6%; under setting [27], 40.4%; under setting [28], 31.9%; under setting [29], 37.7%. Also, the viability, T/C by setting is: under setting [30], 75.3%; under setting [31], 54.2%; under setting [32], 48.2%; under setting [33], 41.6%; under setting [34], 34%; under setting [35], 34.7%.

For `O=C(C=Cc1cccc(S(=O)(=O)Nc2ccccc2)c1)NO` + NC1CCC(NC2CC2c2ccccc2)CC1, the half-inhibitory concentration (IC50) under setting [1] turned out to be 0.0881 µM; the IC50 under setting [2] was 0.0945 µM; the IC50 under setting [3] worked out at 0.121 µM; the concentration for half-maximal inhibition (IC50) under setting [4] stood at 0.112 µM; the IC50 under setting [5] was found to be 0.0837 µM. In addition, the viability, T/C runs as follows: (second compound 0.1 µM, first compound 0.00949 µM) 100%; (second compound 0.1 µM, first compound 0.03 µM) 80.5%; (second compound 0.1 µM, first compound 0.0949 µM) 48.6%; (second compound 0.1 µM, first compound 0.3 µM) 18.1%; (second compound 0.1 µM, first compound 0.949 µM) 4.19%; (second compound 0.1 µM, first compound 3 µM) 1.29%. The viability, T/C is 105% (second compound 0.316 µM, first compound 0.00949 µM); 80.4% (second compound 0.316 µM, first compound 0.03 µM); 53.1% (second compound 0.316 µM, first compound 0.0949 µM); 18.7% (second compound 0.316 µM, first compound 0.3 µM); 3.88% (second compound 0.316 µM, first compound 0.949 µM); 1.5% (second compound 0.316 µM, first compound 3 µM). For the same compound, the viability, T/C was 97.1% (second compound 1 µM, first compound 0.00949 µM); 85.2% (second compound 1 µM, first compound 0.03 µM); 58.5% (second compound 1 µM, first compound 0.0949 µM); 20.8% (second compound 1 µM, first compound 0.3 µM); 3.93% (second compound 1 µM, first compound 0.949 µM); 1.07% (second compound 1 µM, first compound 3 µM). Moreover, the viability, T/C runs as follows: (second compound 3.16 µM, first compound 0.00949 µM) 102%; (second compound 3.16 µM, first compound 0.03 µM) 88.3%; (second compound 3.16 µM, first compound 0.0949 µM) 56.5%; (second compound 3.16 µM, first compound 0.3 µM) 17%; (second compound 3.16 µM, first compound 0.949 µM) 3.94%; (second compound 3.16 µM, first compound 3 µM) 0.93%. The viability, T/C is, setting by setting: (second compound 10 µM, first compound 0.00949 µM) 96.4%; (second compound 10 µM, first compound 0.03 µM) 87.3%; (second compound 10 µM, first compound 0.0949 µM) 44.3%; (second compound 10 µM, first compound 0.3 µM) 13.2%; (second compound 10 µM, first compound 0.949 µM) 3.61%; (second compound 10 µM, first compound 3 µM) 0.5%.

In the case of `O=C(C=Cn1cnc(-c2cc(C(F)(F)F)cc(C(F)(F)F)c2)n1)NNc1cnccn1`, the viability, T/C (compound 0.00316 µM) is 19.9% and 22.1%; the viability, T/C (compound 0.01 µM) was 8.55% and 22.4%; the viability, T/C (compound 0.0316 µM) is 6.32% and 7.96%; the viability, T/C (compound 0.1 µM) is 3.87% and 4.72%; the viability, T/C (compound 0.316 µM) was 2.92% and 3.05%; the viability, T/C (compound 1 µM) is 2.37% and 2.41%. Further, the concentration for half-maximal inhibition (IC50) (curve of compound) is less than 0.00316 µM.

Turning to `CCc1c2c(nc3ccc(O)cc13)-c1cc3c(c(=O)n1C2)COC(=O)[C@]3(O)CC`, the viability, T/C reads like this: (compound 0.000949 µM) 4.32% and 3.69%; (compound 0.003 µM) 2.63% and 2.24%; (compound 0.00949 µM) 1.82% and 1.28%; (compound 0.03 µM) 1.29% and 1.41%; (compound 0.0949 µM) 1.48% and 2.01%; (compound 0.3 µM) 1.75% and 2.19%. In addition, under “curve of compound”, the IC50 is less than 0.000949 µM.

In the case of `Nc1ccccc1NC(=O)c1ccc(CNC(=O)OCc2cccnc2)cc1`, the viability, T/C is, setting by setting: (compound 0.00949 µM) 92.5% and 80.8%; (compound 0.03 µM) 83% and 67.2%; (compound 0.0949 µM) 63.3% and 46.6%; (compound 0.3 µM) 44.4% and 22.8%; (compound 0.949 µM) 17.9% and 5.31%; (compound 3 µM) 5.6% and 3.19%. For the same compound, the IC50 (curve of compound) is 0.2 µM and 0.0773 µM.
